Test results published in patent US7361371B2, “Extract of petasites japonicus having neuroprotective effect and antioxidant activity” (Industry & Acacemic Cooreration in Chungnam National …, priority 2003, dated 2008).
Each block holds one compound with its values, some of them ahead of it.

Legend:
glutathione peroxidase = assay type: in vivo, mouse; details: KA alone or butanol fraction pre-administered; FIG. 6a
[1] = Change in body weight and brain weight of mice
Method: (§1) Male ICR mice (22.5±2.5 g, 6 to 8 weeks old) were freely fed with solid feed for experimental animals (SamYang Co. Korea) in a polycarbonate cage (5 animals per cage). The mice were bred under conditions including a temperature and a relative humidity maintained at 23±3° C. and 60±10%, respectively, a light-dark cycle of 12 hours and illumination of 150 to 200 Lux. Only the animals which had been judged to be healthy during the acclimation period were randomly assigned to groups for the experiment. The breeding and experiment of animals were performed according to Guide for care and use of laboratory animal (National Institutes of Health Guidelines, 1985, 85-23). The groups of mice were unspecifically grouped and the body weight was measured every day. […] After the KA injection, the behavioral change of the mice was monitored by the method of Kondo et al. (Journal of Cerebral Blood Flow and Metabolism, 1997, 17, 241-256). Also, on the next day after the KA injection, the brains were removed from the mice, frozen in liquid nitrogen and stored at −80° C. for 48 hours at maximum until used.

[2] = test system: lipid peroxidation in brain tissue; test: KA-induced lipid peroxidation (TBARS amount) in brain homogenate of treated mice; assay type: in vivo, mouse; details: KA alone, or pre-treatment with butanol fraction 400 mg/kg, Fraction I or Fraction II
Method: Concretely, the brains were removed from mice
Brain tissue from each brain was crushed in 0.25M sucrose solution and the crushed brain homogenate was measured for the TBARS amount contained therein.

[3] = test system: ICR mice (KA-induced oxidative neurotoxicity); test: Fatality rate of mice after kainic acid (KA) injection; assay type: in vivo, mouse
Method: KA, and KA and the butanol fraction of Petasites japonicus were administered and the fatality rate was measured.
The fractions were subjected to the same procedures as described above to measure the fatality rate.

[4] = test system: pyramidal cells in CA1 and CA3 sites of the hippocampus; test: Tissue biopsy: surviving nerve cells in hippocampus after KA; assay type: in vivo, mouse; details: brain removed on the next day after KA; butanol fraction pretreated
Excerpt: Also, the brain removed on the next day after the administration of KA was subjected to a tissue biopsy to examine damage of pyramidal cells in CA1 and CA3 sites of the hippocampus.

glutathione (GSH) = assay type: in vivo, mouse; details: KA administered alone
Method: About 0.2 g of brain tissue from each brain was put into cold 6% metaphosphoric acid solution and crushed using a cold ceramic percussion motor. The crushed solution was centrifuged at 4° C., 27,000 g for 20 minutes. The supernatant was taken. To 0.05 Ml of the supernatant, 0.39 Ml of 100 mM phosphate buffer (pH 7.4) containing 5 mM EDTA, 0.025 ml of 10 mM DTNB (5,5-dithiobis-(2-nitrobenzoic acid)) and 0.08 ml of 5 mM NADPH were added and equilibrated at 25° C. for 3 minutes. Then, 2 units of glutathione (GSH) reductase was added thereto to initiate a reaction. The formation of 2-nitro-5-thiobenzoic acid was monitored by measuring the adsorption at 412 nm using a UV/VIS spectrophotometer (Roberts, J. C. and Francetic, D. J., Analytical Biochemistry, 1993, 211, 183-187; Raymond, C. et al., Journal of Nutrition, 1995, 125, 3062-3070). The total GSH amount contained in a sample was determined from a standard curve constructed by plotting the adsorption at 412 nm versus the known amount of GSH. The amount of GSH was shown by an average±S.E.M of data obtained by performing the experiment using 4 to 8 mice 3 times.

[5] = test system: ICR mice (neurotoxic behavior induced by KA); test: Neuronal behavior change (tail arch, tremor, seizure) after KA; assay type: in vivo, mouse; details: KA 44 mg/kg, fraction I or II 200 mg/kg
Method: as §1

[6] = test system: lipid peroxidation in the brain of a mouse; test: Inhibition of Fe2+/ascorbic acid-induced lipid peroxidation (TBARS) in mouse brain homogenate; assay type: biochemical; details: Fe2+ 0.2 mM / ascorbic acid 25 mM, 37° C., 30 minutes, TBARS at 533 nm
Method: Concretely, the brain of an ICR male mouse (22.5±2.5 g, 6 to 8 weeks old) was removed and washed with 0.15 M KCl solution containing 2 mm EDTA. The washed brain was ground using a tissue homogenizer (Teflon pestle). To 1 ml of the ground brain, 1 ml of 8.1% SDS, 2 ml of 20% acetic acid and 1 ml of 0.75% thiobarbituric acid (TBA) were added. The resulting mixture was boiled, cooled in ice for 30 minutes and centrifuged at 14,000 rpm for 10 minutes to obtain the supernatant. To the supernatant, 1 ml of each of the various solvent fractions of Petasites japonicus from Example 1 was added and Fe^2+ 0.2 mM and ascorbic acid 25 mM were added. The resulting mixture was thoroughly mixed while stirring at 37° C. After 30 minutes, to the mixture, 15% trichloroacetic acid (TCA) and 0.75% TBA were added in the same volume as the mixture. The reaction was boiled for 15 minutes, stored in ice for 5 minutes and centrifuged at 3,000 rpm for 10 minutes to remove corpuscolates. The supernatant was taken and measured for absorption at 533 nm (Bidlack, W. T., and Tappel, A. L., Lipids, 1973, 8, 177-182). Malondialdehyde (Gutteridge, J. M. C., Analytical Biochemistry, 1975, 69, 518-526) produced by hydrolysis of 1,1,3,3,-tetraethoxypropane) was used for calibration.
Asample: absorption of a mixture of brain hydrogenate, ascorbic acid/Fe^2+ and Petasites japonicus extract at 533 nm, […]

[7] = KA 44 mg/kg, fraction I or II 200 mg/kg
[8] = KA 50 mg/kg, butanol fraction 400 mg/kg

SMILES: C=C(C)[C@H]1CN[C@H](C(=O)O)[C@H]1CC(=O)O [KA, kainic acid]
Glutathione peroxidase activity (in words) (glutathione peroxidase): reduced
Body weight change [1, 7]: 0.39 ± 0.29 g
Brain weight [1, 7]: 0.327 ± 0.0098 g
Final body weight [1, 7]: 29.88 ± 0.86 g
Initial body weight [1, 7]: 29.49 ± 0.91 g
Body weight change [1, 8]: 0.95 ± 0.385 g
Brain weight [1, 8]: 0.346 ± 0.0038 g
Final body weight [1, 8]: 32.34 ± 0.58 g
Initial body weight [1, 8]: 31.39 ± 0.49 g
TBARS content of brain homogenate (in words) [2]: increased
Fatality rate ([3]; Exp. Group 1: KA 50 mg/kg intraperitoneal, butanol fraction 400 mg/kg oral once per day for 4 days before KA): 54%
Fatality rate ([3]; Exp. Group 2: KA 50 mg/kg intraperitoneal, butanol fraction 150 mg/kg oral once per day for 4 days before KA): 63.6%
Fatality rate [3, 7]: 54%
Surviving nerve cells in the CA1 site of the hippocampus [4]: 18.5%
Surviving nerve cells in the CA3 site of the hippocampus [4]: 8.9%
Total GSH amount in the brain tissue (glutathione (GSH)): 20%
Tail arch (upper value, unit not given) ([5]; stage 1): 12.4 ± 4.7
Tail arch (value in brackets) ([5]; stage 1): (100%)
Tremor (upper value, unit not given) ([5]; stage 2): 16.7 ± 6.1
Tremor (value in brackets) ([5]; stage 2): (100%)
Seizure (upper value, unit not given) ([5]; stage 3): 18.9 ± 19.5
Seizure (value in brackets) ([5]; stage 3): (100%)

IC50 (inhibition of lipid peroxidation) [6]: 790 µg/mL
SMILES: O=C1O[C@H]([C@@H](O)CO)C(O)=C1O [Ascorbic acid]
